ChEMBL document CHEMBL1135356, “Multidrug resistant cancer cells susceptibility to cytotoxic taxane diterpenes from Taxus yunnanensis and Taxus chinensis” (2002)
Converted amounts (≈) assume the structure as drawn. The source made the active and inactive calls. No cut-off for these calls is given here.

How the values were obtained:
[1] = Cytotoxic activity of compound was evaluated against drug resistant subline KB-7d cells; type: functional; details: Homo sapiens; read-out: ED50 (the source's name)
KB 3-1 [2] = test: Cytotoxic activity of compound was evaluated against KB-VIN cells expressing (P-glycoprotein).; type: functional; details: Homo sapiens, KBVIN; read-out: ED50 (the source's name)
[3] = Cytotoxic activity of compound was evaluated against KB cell line.; type: functional; details: Homo sapiens, read-out: ED50 (the source's name)
KB = test: Cytotoxic activity of compound was evaluated against KB cell line; NA denotes not active at conc. of 20 ug/mL.; type: functional, cell-based; details: Homo sapiens
KB 3-1 [4] = test: Cytotoxic activity of compound was evaluated against KB-VIN cells expressing (P-glycoprotein) at conc. of 20 ug/mL; type: functional; details: Homo sapiens, KBVIN
KB 3-1 [5] = test: Cytotoxic activity of compound was evaluated against drug resistant subline KB-7d cells at conc. of 20 ug/mL; type: functional; details: Homo sapiens
A549 [6] = test: Cytotoxic activity of compound against A-549 tumor cell line at conc. of 20 ug/mL; type: functional; details: Homo sapiens
U-87 MG [7] = test: Cytotoxic activity of compound against U-87-MG tumor cell line.; type: functional, U-87MG ATCC; details: Homo sapiens, read-out: ED50 (the source's name)
[8] = Cytotoxic activity of compound against KB cell lines.; type: functional; details: Homo sapiens, read-out: ED50 (the source's name)
SK-MEL-2 [9] = test: Cytotoxic activity of compound against SK-MEL-2 tumor cell line at conc. of 20 ug/mL; type: functional; details: Homo sapiens
MCF7 [10] = test: Cytotoxic activity of compound against MCF-7 tumor cell line.; type: functional; details: Homo sapiens, read-out: ED50 (the source's name)
[11] = Cytotoxic activity of compound against IA-9 tumor cell line.; type: functional; details: Homo sapiens; read-out: ED50 (the source's name)
A549 [12] = test: Cytotoxic activity of compound against A-549 tumor cell line.; type: functional; details: Homo sapiens, read-out: ED50 (the source's name)
MCF7 [13] = test: Cytotoxic activity of compound against MCF-7 tumor cell line at conc. of 20 ug/mL; type: functional; details: Homo sapiens
U-87 MG [14] = test: Cytotoxic activity of compound against U-87-MG tumor cell line at conc. of 20 ug/mL; type: functional, U-87MG ATCC; details: Homo sapiens
[15] = Cytotoxic activity of compound against KB cell lines at conc. of 20 ug/mL; type: functional; details: Homo sapiens
SK-MEL-2 [16] = test: Cytotoxic activity of compound against SK-MEL-2 tumor cell line.; type: functional; details: Homo sapiens, read-out: ED50 (the source's name)
HOS [17] = test: Cytotoxic activity of compound against HOS tumor cell line.; type: functional; details: Homo sapiens, read-out: ED50 (the source's name)
HCT-8 [18] = test: Cytotoxic activity of compound against HCT-8 tumor cell line; NA denotes not active at conc. of 20 ug/mL.; type: functional, cell-based; details: Homo sapiens
[19] = Cytotoxic activity of compound against IA-9 tumor cell line. at conc. of 20 ug/mL; type: functional; details: Homo sapiens
HOS [20] = test: Cytotoxic activity of compound against HOS tumor cell line at conc. of 20 ug/mL; type: functional; details: Homo sapiens
HCT-8 [21] = test: Cytotoxic activity of compound against HCT-8 tumor cell line.; type: functional; details: Homo sapiens, read-out: ED50 (the source's name)
[22] = Cytotoxic activity of compound was evaluated against KB cell line at conc. of 20 ug/mL; type: functional; details: Homo sapiens
KB 3-1 [23] = test: Cytotoxic activity of compound was evaluated against KB-VIN cells at conc. of 20 ug/mL; type: functional; details: Homo sapiens, KBVIN

SMILES: C=C1[C@@H](OC(=O)/C=C/c2ccccc2)C[C@H](OC(C)=O)[C@@]2(C)[C@@H](OC(C)=O)[C@H](OC(C)=O)C3=C(C)C(=O)C[C@@H]([C@@H](OC(C)=O)[C@H]12)C3(C)C
- EC50 [1]: 4.1 µg/mL (≈ 6.17 µM)
- EC50 (KB 3-1 [2]): 3.6 µg/mL (≈ 5.42 µM)
- EC50 [3]: 3.9 µg/mL (≈ 5.87 µM)

SMILES: CC(=O)O[C@H]1C(=O)[C@@]2(C)C/C(=C\[C@H](OC(C)=O)[C@@H]3C[C@H](OC(C)=O)C(C)=C1C3(C)C)[C@@H](OC(C)=O)C[C@@H]2OC(C)=O
- ED50 (KB): inactive
- EC50 [1]: > 20 µg/mL
- inhibition at 20 µg/mL (KB 3-1 [4]): 5%
- EC50 (KB 3-1 [2]): > 20 µg/mL
- inhibition at 20 µg/mL (KB 3-1 [5]): 22%

SMILES: C=C1[C@@H](OC(=O)/C=C/c2ccccc2)CC[C@@]2(C)[C@@H](OC(C)=O)[C@H](OC(C)=O)[C@@]34[C@H](C)C(=O)C[C@@H]([C@@H](OC(C)=O)C132)C4(C)C (some centres undefined)
- EC50 [1]: 7.8 µg/mL (≈ 12.9 µM)
- EC50 (KB 3-1 [2]): 8.7 µg/mL (≈ 14.3 µM)
- EC50 [3]: 12.1 µg/mL (≈ 19.9 µM)

SMILES: CC(=O)OC/C1=C\[C@H](OC(C)=O)[C@]2(C)C[C@H](OC(C)=O)C(C)=C([C@@H](OC(C)=O)/C(OC(C)=O)=C(/C)[C@@H](OC(C)=O)C[C@@H]1OC(=O)/C=C/c1ccccc1)C2(C)C
- EC50 [1]: 10 µg/mL (≈ 12.8 µM)
- EC50 (KB 3-1 [2]): 13.3 µg/mL (≈ 17 µM)
- EC50 [3]: 16.6 µg/mL (≈ 21.3 µM)

SMILES: C=C1[C@@H](OC(=O)/C=C/c2ccccc2)CC[C@@]2(C)[C@@H](O)[C@H](OC(C)=O)[C@@]34[C@H](C)C(=O)C[C@@H]([C@@H](OC(C)=O)C132)C4(C)C (some centres undefined)
- EC50 [1]: 6.1 µg/mL (≈ 10.8 µM)
- EC50 (KB 3-1 [2]): 6.4 µg/mL (≈ 11.3 µM)
- EC50 [3]: 7.7 µg/mL (≈ 13.6 µM)

SMILES: C=C1[C@@H](OC(=O)/C=C/c2ccccc2)C[C@H](OC(C)=O)[C@@]2(C)[C@@H](OC(C)=O)[C@H](OC(C)=O)C3=C(C)[C@@H](OC(C)=O)C[C@@H]([C@@H](OC(C)=O)[C@H]12)C3(C)C
- EC50 [1]: 14.2 µg/mL (≈ 20 µM)
- EC50 (KB 3-1 [2]): 16.2 µg/mL (≈ 22.9 µM)
- EC50 [3]: 16 µg/mL (≈ 22.6 µM)

SMILES: C=C1[C@@H](OC(C)=O)CC[C@@]2(C)C[C@H](OC(C)=O)C3=C(C)C[C@H](OC(=O)[C@@H](C)C(C)O)[C@@H]([C@@H](OC(C)=O)[C@H]12)C3(C)C (some centres undefined)
- EC50 [1]: 4.3 µg/mL (≈ 7.64 µM)
- EC50 (KB 3-1 [2]): 8.6 µg/mL (≈ 15.3 µM)
- EC50 [3]: 9.8 µg/mL (≈ 17.4 µM)

SMILES: C=C1[C@@H](OC(=O)/C=C/c2ccccc2)CC[C@@]2(C)[C@@H](OC(C)=O)[C@H](OC(C)=O)C3=C(C)[C@@H](OC(C)=O)C[C@@H]([C@@H](O)[C@H]12)C3(C)C
- EC50 [1]: 9.4 µg/mL (≈ 15.4 µM)
- EC50 (KB 3-1 [2]): 11 µg/mL (≈ 18.1 µM)
- EC50 [3]: 12.5 µg/mL (≈ 20.5 µM)

SMILES: COc1ccc(-c2cc(=O)c3c(O)cc(O)c(-c4cc(OC)ccc4-c4cc(=O)c5c(O)cc(OC)cc5o4)c3o2)cc1
- inhibition at 20 µg/mL (A549 [6]): 58%
- EC50 (U-87 MG [7]): > 20 µg/mL
- EC50 [8]: > 20 µg/mL
- inhibition at 20 µg/mL (SK-MEL-2 [9]): 9%
- inhibition at 20 µg/mL (KB 3-1 [4]): 9%
- EC50 (KB 3-1 [2]): > 20 µg/mL
- EC50 (MCF7 [10]): > 20 µg/mL
- EC50 [11]: > 20 µg/mL
- EC50 (A549 [12]): > 20 µg/mL
- inhibition at 20 µg/mL (MCF7 [13]): 22%
- inhibition at 20 µg/mL (U-87 MG [14]): 17%
- inhibition at 20 µg/mL [15]: 12%
- EC50 (SK-MEL-2 [16]): > 20 µg/mL
- EC50 (HOS [17]): > 20 µg/mL
- inhibition (HCT-8 [18]): inactive
- inhibition at 20 µg/mL [19]: 44%
- inhibition at 20 µg/mL (HOS [20]): 25%

SMILES: C=C1[C@@H](OC(=O)/C=C/c2ccccc2)C[C@H](OC(C)=O)[C@@]2(CCOC(C)=O)[C@@H](OC(C)=O)[C@H](OC(C)=O)[C@]3(O)[C@@]4(C)CO[C@]3(C)C(=O)C[C@H]4[C@@H](OC(C)=O)[C@H]12
- EC50 [1]: 4.6 µg/mL (≈ 5.98 µM)
- EC50 (KB 3-1 [2]): 17 µg/mL (≈ 22.1 µM)
- EC50 [3]: 6.2 µg/mL (≈ 8.06 µM)

SMILES: COc1ccc(-c2cc(=O)c3c(O)cc(OC)cc3o2)c(-c2c(O)cc(O)c3c(=O)cc(-c4ccc(O)cc4)oc23)c1
- EC50 (U-87 MG [7]): 7 µg/mL (≈ 12.4 µM)
- EC50 [8]: 7.5 µg/mL (≈ 13.2 µM)
- inhibition at 20 µg/mL (KB 3-1 [4]): 21%
- EC50 (HCT-8 [21]): 8.5 µg/mL (≈ 15 µM)
- EC50 (KB 3-1 [2]): > 20 µg/mL
- EC50 (MCF7 [10]): 7.5 µg/mL (≈ 13.2 µM)
- EC50 [11]: 6 µg/mL (≈ 10.6 µM)
- EC50 (A549 [12]): 5.5 µg/mL (≈ 9.71 µM)
- EC50 (SK-MEL-2 [16]): 7 µg/mL (≈ 12.4 µM)
- EC50 (HOS [17]): 8 µg/mL (≈ 14.1 µM)

SMILES: CC(=O)O[C@H]1C[C@H]2[C@@H](OC(C)=O)/C=C3\C[C@@](C)([C@@H](OC(C)=O)C[C@@H]3OC(C)=O)[C@@H](O)C(=O)C(=C1C)C2(C)C
- EC50 [1]: > 28 µg/mL
- inhibition at 20 µg/mL [22]: 10%
- EC50 (KB 3-1 [2]): > 21 µg/mL
- inhibition at 20 µg/mL (KB 3-1 [23]): 21%
- inhibition at 20 µg/mL (KB 3-1 [5]): 28%
- EC50 [3]: > 20 µg/mL

SMILES: C=C1[C@@H](OC(=O)/C=C/c2ccccc2)C[C@H](OC(C)=O)[C@]2(C)[C@@H]1C[C@@H]1C[C@H](OC(C)=O)C(C)=C([C@@H](OC(C)=O)[C@@H]2OC(C)=O)C1(C)C
- EC50 [1]: 3.5 µg/mL (≈ 5.38 µM)
- EC50 (KB 3-1 [2]): 2.4 µg/mL (≈ 3.69 µM)
- EC50 [3]: 4.8 µg/mL (≈ 7.38 µM)

SMILES: CC(=O)O[C@H]1CC[C@@]2(C)C[C@H](OC(C)=O)C3=C(C)CC(O)[C@@H]([C@@H](OC(C)=O)[C@@H]2C1)C3(C)C (some centres undefined)
- EC50 [1]: 9.6 µg/mL (≈ 21.3 µM)
- inhibition at 20 µg/mL [22]: 45%
- EC50 (KB 3-1 [2]): 17.3 µg/mL (≈ 38.4 µM)
- EC50 [3]: > 20 µg/mL
